Results on 13 compounds are retold here after US5066666A, “Aminoazole derivatives and their production and use” (Sumitomo Pharmaceuticals Company, Limited, priority 1986, dated 1991).

Data set [1] relates to Arthus reaction. Particulars: background statement; cited from earlier work.
Data set [2] has as its system Arthus reaction. Description: Mice-Arthus Test. To be noted: for minimal effective dose: Mus musculus, 3 h, orally 24 hr and 1 hr before the challenge, read-out: Minimum Effective Dose Arthus. The class given is in vivo, male BABL/c mice. How it is done: The activity of effect for rheumatoid arthritis may be estimated by effect for Arthus reaction. […] Two weeks later, mice were boosted by the i.v. injection of 8×10^7 SRBC and 5 day later the animals were challenged by the subcutaneous injection of 1×10^8 SRBC in 25 μl of PBS into the right hind footpad. The thickness of the SRBC-injection right hind paw and contralateral left hind paw were measured with micrometer 3 hr after the challenge. The difference between these two measurements is regarded as the oedema due to the Arthus reaction. Percentage inhibition of the reaction was determined by comparison with the positive control group. The test compounds were administered orally 24 hr and 1 hr before the challenge.

The test system of data set [3] is adjuvant arthritis. To be noted: background statement; cited from earlier work.
Data set [4] relates to adjuvant arthritis. Description: Rat-Adjuvant Arthritis Test. In kind it is in vivo, male Sprague-Dawley rats. To be noted: for effect in rat adjuvant arthritis test, in words: in vivo; for minimal effective dose: Rattus norvegicus, po, orally once a day for 5 days (day 15 to 19), lowest dose with significant reduction (p<0.001) of foot volume, read-out: Minimum Effective Dose Adjuvant Arthritis. An excerpt:
Rat adjuvant arthritis test is one of a few and most useful pharmacological model for the investigation of human […] inflammation. It is known that the effective compounds to this model system are useful for treatment of rheumatoid arthritis, such as steroids or non-steroidal anti-inflammatory drugs (Oyo Yakuri, 5, 169 (1971).
According to the method of Winter et al., Arth. Rheum., 9, 394 (1966), male Sprague-Dawley rats, 6 weeks of age, were given subplantar injection of the adjuvant consisting of 1 mg of killed Mycobacterium butyricum (Difco) and 0.2 ml of liquid paraffin. Fourteen days after, the rats with established arthritis were treated by the drug as follows: the test compound was suspended in 5% gum arabic solution and orally given once a day for 5 days, day 15 to day 19. Control rats were given gum arabic in the same way. On day 19, the volume of right foot was determined with a plethusometer. The lowest dose which gave significant reduction (p<0.001)of the foot volume from that of the control group was regarded as a minimum effective dose (MED).

A further data set has as its target T1, 5-lipoxygenase (Cavia porcellus, UniProt A0A286X958).
T1 construct: polymorphonuclear leukocytes (PMNs) from Hartley guinea pigs; endogenous in cells; host or cells: casein-elicited peritoneal polymorphonuclear leukocytes of Hartley guinea pigs (intact cells)
T1 sequence (A0A286X958 1-674): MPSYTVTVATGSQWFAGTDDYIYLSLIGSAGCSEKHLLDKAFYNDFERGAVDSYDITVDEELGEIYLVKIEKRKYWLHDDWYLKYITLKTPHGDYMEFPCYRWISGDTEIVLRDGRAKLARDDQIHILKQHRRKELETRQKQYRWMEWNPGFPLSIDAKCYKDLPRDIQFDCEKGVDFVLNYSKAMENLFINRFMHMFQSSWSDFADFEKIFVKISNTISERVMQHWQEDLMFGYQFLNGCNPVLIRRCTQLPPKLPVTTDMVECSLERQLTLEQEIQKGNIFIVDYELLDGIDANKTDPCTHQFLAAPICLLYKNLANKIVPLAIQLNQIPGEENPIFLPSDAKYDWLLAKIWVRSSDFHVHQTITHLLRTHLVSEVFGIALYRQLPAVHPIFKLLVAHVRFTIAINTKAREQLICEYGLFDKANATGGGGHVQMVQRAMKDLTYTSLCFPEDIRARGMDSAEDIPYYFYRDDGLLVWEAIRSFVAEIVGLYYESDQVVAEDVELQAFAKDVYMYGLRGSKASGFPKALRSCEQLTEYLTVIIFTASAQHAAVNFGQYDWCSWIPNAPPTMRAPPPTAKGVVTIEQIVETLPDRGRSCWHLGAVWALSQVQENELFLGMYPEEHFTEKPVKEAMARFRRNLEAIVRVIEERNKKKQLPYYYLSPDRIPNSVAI
Description: 5-Lypoxygenase Inhibitory Test. Particulars: PMNs from guinea pigs, A23187 stimulated, [14C] arachidonic acid; Inhibition (%) classes. The class given is cell-based, Hartley guinea pigs. How it is done: According to the method of Harvey et al., J. Pharmacol. Meth., 9, 147-155 (1983), polymorphonuclear leukocytes (PMNs) from Hartley guinea pigs weighting 280 to 350 g were elicited by intraperit oneal injection of 2% casein suspension (10 ml/100 g guiner pig weight), and collected 16-18 hrs later. The cells were washed with saline and finally suspended at 2.39×10^7 cells/ml in Krebs Ringer Bicarbonate buffer (KBR) pH 7.4.
935 μl of PMNs were aliquoted into 15 ml glass tubes and prewarmed to 37° C. in a shaking water bath. Drugs (10 μl of dimethylsulfoxide (DMSO)) were added 10 minutes prior to the addition of 1-^14 C-arachidonic acid (New England Neuclear Co.; 50 μl of 2 μCi/mlKBR) and calciumionophor, A23187 (Calbiochem Boehring Co.; 5 μl of 1 mg/mlDMSO). The reaction was terminated after a further 10 min by the addition of 0.2M citric acid (100 μl). Unstimulated controls were also included to determine the increased metabolism of arachidonic acid due to A23187. Samples were diluted with water (4 ml) and extracted twice with ethyl acetate (5 ml). The ethyl acetate was concentrated under a stream of nitrogen and two-thirds of the residue was applied to TLC plates. The plates were developed in toluene:dioxane:acetic acid=65:34:1.5at 10° C.
Radiochromatographic analysis of the labelled metabolites of [^14 C] arachidonic acid utilized a Berthold LB283 TLC Linear Analyzer. In samples and controls, a ratio of radioactivity of 5-HETE in metabolites to all of metabolites of [^14 C] arachidonic acid was calculated, and results were determined as percent inhibition calculated from those retios.

The conditions of data set [5]: background statement, clinical use, cited from earlier work.

Each structure is given as a SMILES string. Like-named read-outs stand apart in the source and are kept apart here.

For the compound `CC(C)(S)[C@@H](N)C(=O)O` [D-Penicillamine], the “effect in Arthus reaction, in words” value in the data set on Arthus reaction [1] is reported as “non-effective”. For the same compound, the “effect in mice Arthus reaction test, in words” value with Arthus reaction [2] (mouse, in vivo) is recorded as “non-effective”. Also, the “effect in adjuvant arthritis test, in words” value with adjuvant arthritis [3] is on record as “non-effective”. In the data set on adjuvant arthritis [4] (at 200 mg/kg), the “Adjuvant Arthritis (result in words)” value was “non-effective”. For the same compound, in the data set on adjuvant arthritis [4], the “effect in rat adjuvant arthritis test, in words” value is listed as “non-effective”.

Regarding `CNc1nc(C(C)c2ccc(-c3ccccc3)c(F)c2)cs1` (stereo not drawn) [Example 2, 4-[1-(2-fluoro-4-biphenylyl)ethyl]-2-methylaminothiazole], the results for the minimal effective dose with Arthus reaction [2] and with adjuvant arthritis [4] were 10 mg/kg and 25 mg/kg, respectively.

As to `CC(c1ccc(-c2ccccc2)c(F)c1)c1coc(N)n1` (stereo not drawn) [Example 7, 2-Amino-4-(1-(2-fluoro-4-biphenylyl)ethyl)oxazole], the minimal effective dose in the data set with Arthus reaction [2] and in the data set with adjuvant arthritis [4] was 10 mg/kg each time.

For `CC(c1cccc(C(=O)c2ccccc2)c1)c1nc(N(C)C)no1` (stereo not drawn) [Example 11, 3-dimethylamino-5-(1-(3-benzoylphenyl)ethyl)-1,2,4-oxadiazole], the minimal effective dose is 10 mg/kg in the data set on Arthus reaction [2] and 2.5 mg/kg with adjuvant arthritis [4].

As for `CC(c1ccc(-c2ccccc2)c(F)c1)c1nc(N)no1` (stereo not drawn) [Example 21, 3-amino-5-(1-(2-fluoro-4-biphenylyl)ethyl)-1,2,4-oxadiazole], the minimal effective dose was 10 mg/kg in the data set on Arthus reaction [2] and 2.5 mg/kg with adjuvant arthritis [4]. The “Activity of Inhibition (5-lipoxygenase)” value at 5-lipoxygenase was “++ (40-70%)”.

Turning to `CC(c1cccc(C(=O)c2ccccc2)c1)c1nc(N)no1` (stereo not drawn) [Example 22], the minimal effective dose stood at 50 mg/kg with Arthus reaction [2] and 2.5 mg/kg in the data set with adjuvant arthritis [4]. For the same compound, the “Activity of Inhibition (5-lipoxygenase)” value on 5-lipoxygenase is listed as “+++ (70%<)”.

Consider `CC(c1ccc(-c2ccccc2)c(F)c1)c1csc(N(C)C)n1` (stereo not drawn) [Example 48, 4-(1-(2-fluoro-4-biphenylyl)ethyl)-2-dimethylaminothiazole], for which the results for the minimal effective dose in the data set with Arthus reaction [2] and in the data set with adjuvant arthritis [4] were 50 mg/kg and 10 mg/kg, respectively.

For `CC(c1cccc(C(=NO)c2ccccc2)c1)c1nc(N)no1` (stereo not drawn) [Example 65], at 5-lipoxygenase, the “Activity of Inhibition (5-lipoxygenase)” value is reported as “+++ (70%<)”.

For `CN(C)c1noc(Cc2cccc(C(=NO)c3ccccc3)c2)n1` [Example 67], the figures for the minimal effective dose with Arthus reaction [2] and in the data set with adjuvant arthritis [4] were 50 mg/kg and 10 mg/kg, respectively. Besides, the “Activity of Inhibition (5-lipoxygenase)” value at 5-lipoxygenase is on record as “+++ (70%<)”.

Consider `CC(c1cccc(C(=O)c2ccccc2)c1)c1cc(N)on1` (stereo not drawn) [Example 74], for which the minimal effective dose was determined as 50 mg/kg with Arthus reaction [2] and 2.5 mg/kg with adjuvant arthritis [4].

Regarding `c1ccc(CCNc2nc(-c3ccccc3)cs2)cc1` [fanetizole, 2-phenethylamino-4-phenylthiazole], the “effect in Arthus reaction, in words” value with Arthus reaction [1] was “effective”. For the same compound, the “effect in adjuvant arthritis test, in words” value in the data set on adjuvant arthritis [3] is “non-effective”.

For the compound `c1ccc([C@H]2CN3CCSC3=N2)cc1` [levamizole], the “effect in Arthus reaction, in words” value in the data set on Arthus reaction [1] is “effective”. Moreover, in the data set on Arthus reaction [2], the minimal effective dose stood at 50 mg/kg. Besides, the values for the side effects result in data set [5] and in data set [5] (listed as Levamizole) were “serious side effects” and “many severe side-effects”, respectively. Further, the “effect in adjuvant arthritis test, in words” value in the data set with adjuvant arthritis [3] was “non-effective”. The “Adjuvant Arthritis (result in words)” value in the data set on adjuvant arthritis [4] (at 50 mg/kg) is given as “non-effective”. Also, the “effect in rat adjuvant arthritis test, in words” value in the data set on adjuvant arthritis [4] was “non-effective”.

Consider `O=C(Nc1nc(-c2ccccc2)cs1)OCC(Cl)(Cl)Cl` [lotifazole, 4-phenyl-2-(2',2',2'-trichloroethoxycarboxamido)thiazole], for which the “effect in Arthus reaction, in words” value in the data set with Arthus reaction [1] is recorded as “effective”. The “effect in adjuvant arthritis test, in words” value with adjuvant arthritis [3] is listed as “non-effective”.
